Assay [1] deals with PC3MM cells. Briefly: Cell Proliferation Assay (Cell Titer Glo), PC3MM. The format is cell-based. The settings on record: cell proliferation, PC3MM cells; read-out: CPEC50 PC3MM. The essentials: (§1)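 Following a 3-day compound exposure (37° C., 5% CO2) of A2780 or PC3MM cells plated at 1000 per well, viability was measured by Cell Titer Glo luminescence in fresh medium, read 10 min after reagent addition.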
For orientation: Cellular ATP, detected with luciferase, serves as a proxy for viable cell number.

In assay [2] the target is T1, PDK1 kinase (Homo sapiens, UniProt O15530).
T1 sequence (O15530 1-556): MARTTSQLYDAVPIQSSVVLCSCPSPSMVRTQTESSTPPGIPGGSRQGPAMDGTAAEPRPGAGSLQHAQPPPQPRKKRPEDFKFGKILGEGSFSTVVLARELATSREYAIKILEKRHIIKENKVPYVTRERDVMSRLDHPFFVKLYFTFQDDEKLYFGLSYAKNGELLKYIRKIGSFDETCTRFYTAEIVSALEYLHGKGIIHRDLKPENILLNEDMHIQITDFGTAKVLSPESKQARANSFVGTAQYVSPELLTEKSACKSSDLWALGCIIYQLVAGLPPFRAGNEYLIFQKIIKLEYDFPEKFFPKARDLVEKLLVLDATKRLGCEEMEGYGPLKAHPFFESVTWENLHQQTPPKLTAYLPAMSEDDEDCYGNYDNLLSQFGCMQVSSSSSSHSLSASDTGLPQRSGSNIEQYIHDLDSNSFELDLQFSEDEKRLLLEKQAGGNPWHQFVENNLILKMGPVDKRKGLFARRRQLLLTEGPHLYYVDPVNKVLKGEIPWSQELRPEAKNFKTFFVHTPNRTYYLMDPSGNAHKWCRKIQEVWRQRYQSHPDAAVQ
Nature of the assay: PDK1 Kinase Alpha Screen Assay. The format is biochemical. The settings on record: PDK1 Kinase Alpha Screen Assay; read-out: PDK1 IC50. The essentials:
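PDK1, 10 uM ATP, 50 nM biotin-PDK1-4 peptide; 50 mM Tris pH 7.5, 10 mM MgCl2, 0.1% BSA, 0.01% Tween-20, 2 mM DTT, 2.5% DMSO; 3-18 h. EDTA stop; AlphaScreen, phospho-Ser/Thr antibody, overnight RT.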

The test system of assay [3] is A2780 cells. Nature of the assay: Cell Proliferation Assay (Cell Titer Glo), A2780. The format is cell-based. To be noted: Homo sapiens; cell proliferation, A2780 cells; read-out: CPEC50 A2780. The essentials: as §1

Our source for the EC50 and IC50 values is patent US7932262B2 (Novartis AG, priority 2006, dated 2011).

A word on the IC50: it is the concentration at which inhibition is half-maximal. Take `CC(C)N1CC(Oc2cccc3cnc(Nc4ccc(S(N)(=O)=O)cc4)nc23)C1` [Compound 818, 4-(8-(1-isopropylazetidin-3-yloxy)quinazolin-2-ylamino)benzenesulfonamide]: the EC50 in assay [1] and in assay [3] was less than 5 µM in each case. Besides, the IC50 in assay [2] was less than 5 µM.
For `NS(=O)(=O)c1ccc(Nc2ncc3cccc(OC4CNC4)c3n2)cc1` [Compound 819, 4-(8-(azetidin-3-yloxy)quinazolin-2-ylamino)benzenesulfonamide], the figures for the EC50 in assay [1] and in assay [3] were less than 5 µM and 5 to 10 µM, respectively. Besides, the IC50 in assay [2] was less than 5 µM.
For `NS(=O)(=O)c1ccc(Nc2ncc3ccc(C(=O)N4CCCC4)cc3n2)cc1` [Compound 820, 4-(7-(pyrrolidine-1-carbonyl)quinazolin-2-ylamino)benzenesulfonamide], the EC50 in assay [1] and in assay [3] was less than 5 µM each time. Further, the IC50 in assay [2] is less than 5 µM.
For `Nc1ccc(-c2cccc3cnc(Nc4ccc(S(N)(=O)=O)cc4)nc23)cn1` [Compound 821, 4-(8-(6-aminopyridin-3-yl)quinazolin-2-ylamino)benzenesulfonamide], the EC50 in assay [1] and in assay [3] was less than 5 µM each time. Further, in assay [2], the IC50 was less than 5 µM.
Consider `CN1CCN(C(=O)c2cccc(-c3cccc4cnc(Nc5ccc(S(N)(=O)=O)cc5)nc34)c2)CC1` [Compound 822, 4-(8-(3-(4-methylpiperazine-1-carbonyl)phenyl)quinazolin-2-ylamino)benzenesulfonamide], for which the EC50 in assay [1] and in assay [3] was less than 5 µM throughout. Also, the IC50 in assay [2] is less than 5 µM.
With `Nc1ncc(-c2cccc3cnc(Nc4ccc(S(N)(=O)=O)cc4)nc23)cn1` [Compound 823, 4-(8-(2-aminopyrimidin-5-yl)quinazolin-2-ylamino)benzenesulfonamide], the EC50 in assay [1] and in assay [3] was less than 5 µM throughout. In addition, in assay [2], the IC50 is less than 5 µM.
Take `CN1CCN(C(=O)c2ccc(-c3cccc4cnc(Nc5ccc(S(N)(=O)=O)cc5)nc34)cc2)CC1` [Compound 824, 4-(8-(4-(4-methylpiperazine-1-carbonyl)phenyl)quinazolin-2-ylamino)benzenesulfonamide]: the EC50 in assay [1] and in assay [3] was less than 5 µM each time. In assay [2], the IC50 is less than 5 µM.
Take `NS(=O)(=O)c1ccc(Nc2ncc3cccc(-c4ccc(N5CCOCC5)nc4)c3n2)cc1` [Compound 826, 4-(8-(6-morpholinopyridin-3-yl)quinazolin-2-ylamino)benzenesulfonamide]: the EC50 in assay [1] and in assay [3] was less than 5 µM throughout. Besides, the IC50 in assay [2] was less than 5 µM.
As for `NS(=O)(=O)c1ccc(Nc2ncc3cccc(-c4ccc(N5CCNC(=O)C5)nc4)c3n2)cc1` [Compound 828, 4-(8-(6-(3-oxopiperazin-1-yl)pyridin-3-yl)quinazolin-2-ylamino)benzenesulfonamide], the EC50 in assay [1] and in assay [3] was less than 5 µM throughout. For the same compound, the IC50 in assay [2] was less than 5 µM.
As to `CC(=O)NCCNc1ccc(-c2cccc3cnc(Nc4ccc(S(N)(=O)=O)cc4)nc23)cn1` [Compound 829, N-(2-(5-(2-(4-sulfamoylphenylamino)quinazolin-8-yl)pyridin-2-ylamino)ethyl)acetamide], the EC50 in assay [1] and in assay [3] was less than 5 µM in each case. Besides, the IC50 in assay [2] was less than 5 µM.
Take `CC(C)Nc1ccc(-c2cccc3cnc(Nc4ccc(S(N)(=O)=O)cc4)nc23)cn1` [Compound 831, 4-(8-(6-(isopropylamino)pyridin-3-yl)quinazolin-2-ylamino)benzenesulfonamide]: the EC50 in assay [1] and in assay [3] was less than 5 µM in each case. Also, the concentration for half-maximal inhibition (IC50) in assay [2] was less than 5 µM.
As to `NS(=O)(=O)c1ccc(Nc2ncc3cccc(-c4ccc(N5CCCC5)nc4)c3n2)cc1` [Compound 832, 4-(8-(6-(pyrrolidin-1-yl)pyridin-3-yl)quinazolin-2-ylamino)benzenesulfonamide], the EC50 in assay [1] and in assay [3] was less than 5 µM in each case. Besides, the IC50 in assay [2] was less than 5 µM.
